In patent US20230365537A1, “POLO LIKE KINASE 4 INHIBITORS” (ORIC Pharmaceuticals, Inc., priority 2021, published 2023):

How the values were obtained:
human recombinant PLK4 = human recombinant PLK4 (Homo sapiens (Human), UniProt O00444); assay: PLK4 Biochemical Assay (ADP-Glo); details: 0.5 nM PLK4, 8.0 µM ATP, 4.7 µM MBP, 6 hours at RT
Summary of the method: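 Luminescent ADP-Glo detection quantified ADP production, with ATP depletion for 40 min and detection for 30 min at room temperature. Compound and PLK4 (1.0 nM stock addition) were preincubated 15 min in HEPES pH 7.5 buffer containing MgCl2, EGTA, DTT, Brij-35 and BSA. IC50 values were obtained by four-parameter nonlinear regression.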

CHP-134 cells = assay: CHP134 CellTiter-Glo (CTG) Assay; assay type: cell-based; details: Homo sapiens, CHP-134, 120 h, 5 days, viable cells by CellTiter-Glo
Summary of the method: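 Nine-point 1:3 dilution series, diluted into growth media, added in quadruplicate to CHP-134 cells plated 16 h earlier at 200 cells/well.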

[1] = molecular target: human recombinant Aurora B (Homo sapiens (Human), UniProt Q96GD4); assay: Aurora B Kinase Biochemical Assay (ADP-Glo); details: ratio of Aurora B IC50 to PLK4 IC50 (selectivity)
Summary of the method: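 IC50 derived by four-parameter nonlinear fit of ADP-Glo luminescence (ADP produced). Compound was preincubated 15 min at RT with 20 nM recombinant human Aurora B, in 50 mM HEPES pH 7.5, 10 mM MgCl2, 1 mM EGTA, 1 mM DTT, 0.01% Brij-35/BSA.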

[2] = molecular target: human recombinant Aurora A (Homo sapiens (Human), UniProt O14965); assay: Aurora A Kinase Biochemical Assay (ADP-Glo); details: ratio of Aurora A IC50 to PLK4 IC50 (selectivity)
human recombinant Aurora A, sequence (O14965 whole entry): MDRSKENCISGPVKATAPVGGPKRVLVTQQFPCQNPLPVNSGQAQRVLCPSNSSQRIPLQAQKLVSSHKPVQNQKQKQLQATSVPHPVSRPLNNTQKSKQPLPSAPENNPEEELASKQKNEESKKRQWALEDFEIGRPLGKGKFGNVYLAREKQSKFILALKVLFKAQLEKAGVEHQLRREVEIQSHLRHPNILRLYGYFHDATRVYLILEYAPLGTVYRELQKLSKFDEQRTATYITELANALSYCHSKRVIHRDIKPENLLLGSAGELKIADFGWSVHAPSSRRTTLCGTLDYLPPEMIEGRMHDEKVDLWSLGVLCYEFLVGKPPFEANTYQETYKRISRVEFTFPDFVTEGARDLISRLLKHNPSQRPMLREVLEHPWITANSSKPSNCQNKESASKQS

human recombinant PLK4, sequence (O00444 whole entry): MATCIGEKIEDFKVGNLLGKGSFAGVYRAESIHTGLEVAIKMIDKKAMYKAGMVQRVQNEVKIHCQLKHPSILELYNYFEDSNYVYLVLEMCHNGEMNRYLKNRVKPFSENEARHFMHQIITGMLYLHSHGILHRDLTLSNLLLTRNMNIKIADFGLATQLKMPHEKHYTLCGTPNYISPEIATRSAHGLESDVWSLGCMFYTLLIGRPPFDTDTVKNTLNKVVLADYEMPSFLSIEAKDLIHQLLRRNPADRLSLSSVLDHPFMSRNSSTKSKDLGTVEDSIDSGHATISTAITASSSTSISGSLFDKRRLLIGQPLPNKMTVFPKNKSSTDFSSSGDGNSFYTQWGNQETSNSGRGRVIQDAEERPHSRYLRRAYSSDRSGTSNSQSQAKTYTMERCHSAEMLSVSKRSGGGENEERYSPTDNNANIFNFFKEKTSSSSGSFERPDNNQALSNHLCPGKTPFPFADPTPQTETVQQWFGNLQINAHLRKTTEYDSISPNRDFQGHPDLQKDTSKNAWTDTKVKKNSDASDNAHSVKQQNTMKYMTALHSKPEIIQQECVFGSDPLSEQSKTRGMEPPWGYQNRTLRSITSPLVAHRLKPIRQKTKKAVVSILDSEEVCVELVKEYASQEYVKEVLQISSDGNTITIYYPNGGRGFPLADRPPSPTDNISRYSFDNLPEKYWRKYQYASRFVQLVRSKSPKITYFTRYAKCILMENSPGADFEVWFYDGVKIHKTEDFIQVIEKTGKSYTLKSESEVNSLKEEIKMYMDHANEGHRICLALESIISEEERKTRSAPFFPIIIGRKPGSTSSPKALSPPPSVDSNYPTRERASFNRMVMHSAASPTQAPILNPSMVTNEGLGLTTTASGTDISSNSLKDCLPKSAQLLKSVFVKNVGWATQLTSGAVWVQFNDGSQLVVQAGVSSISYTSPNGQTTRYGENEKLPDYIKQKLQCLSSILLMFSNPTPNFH
human recombinant Aurora B, sequence (Q96GD4 whole entry): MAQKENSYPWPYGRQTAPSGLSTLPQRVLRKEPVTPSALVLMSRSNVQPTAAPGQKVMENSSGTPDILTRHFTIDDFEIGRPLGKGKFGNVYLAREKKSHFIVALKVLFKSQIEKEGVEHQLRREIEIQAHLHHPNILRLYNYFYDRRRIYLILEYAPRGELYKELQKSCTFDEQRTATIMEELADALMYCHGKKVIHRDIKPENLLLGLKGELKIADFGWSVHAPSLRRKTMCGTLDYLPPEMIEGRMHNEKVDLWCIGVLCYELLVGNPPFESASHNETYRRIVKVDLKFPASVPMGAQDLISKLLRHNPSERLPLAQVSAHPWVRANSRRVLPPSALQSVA

IC50 (human recombinant PLK4) [µM] | [Aurora B IC50 (nM)]/[PLK4 IC50 (nM)] [1] | [Aurora A IC50 (nM)]/[PLK4 IC50 (nM)] [2] | SMILES | IC50 (CHP-134 cells) [µM]
0.00198 | 725.3912 | 686 | COc1ccc2c(c1)[C@]1(C[C@H]1c1ccc3c(Nc4cc5c(cc4OC)C(=O)N(C)C5)n[nH]c3c1)C(=O)N2 [Example 265, (1R,2S)-5′-methoxy-2-{3-[(6-methoxy-2-methyl-1-oxo-2,3-dihydro-1H-isoindol-5-yl)amino]-1H-indazol-6-yl)spiro[cyclopropane-1,3′-indol]-2′(1′H)-one] | 1.07
0.00234 | 154.9914 | 723.9761 | COc1ccc2c(c1)[C@]1(C[C@H]1c1ccc3c(Nc4ccc5c(c4OC)CN(C)C5=O)n[nH]c3c1)C(=O)N2 [Example 266, (1R,2S)-5′-methoxy-2-{3-[(4-methoxy-2-methyl-1-oxo-2,3-dihydro-1H-isoindol-5-yl)amino]-1H-indazol-6-yl}spiro[cyclopropane-1,3′-indol]-2′(1′H)-one] | 0.792
0.00157 | 406.8833 | 789.0376 | COc1ccc2c(c1)[C@]1(C[C@H]1c1ccc3c(Nc4ncc(S(=O)(=O)N5CCCO5)cc4OC)n[nH]c3c1)C(=O)N2 [Example 267, (1R,2S)-5′-methoxy-2-(3-{[3-methoxy-5-(1,2-oxazolidine-2-sulfonyl)pyridin-2-yl]amino}-1H-indazol-6-yl)spiro[cyclopropane-1,3′-indol]-2′(1′H)-one] | 0.325
0.000874 | 769.9084 | 1159 | COc1ccc2c(c1)[C@]1(C[C@H]1c1ccc3c(Nc4ncc(S(=O)(=O)N5CCC5)cc4OC)n[nH]c3c1)C(=O)N2 [Example 268, (1R,2S)-2-(3-{[5-(azetidine-1-sulfonyl)-3-methoxypyridin-2-yl]amino}-1H-indaxol-6-yl)-5′-methoxyspiro[cyclopropane-1,3′-indol]-2′(1′H)-one] | 0.123
0.00089 | 138.7640 | 191.7977 | COc1ccc2c(c1)[C@]1(C[C@H]1c1ccc3c(Nc4ncc(S(=O)(=O)NC5(C)COC5)cc4OC)n[nH]c3c1)C(=O)N2 [Example 269, 5-methoxy-6-({6-[(1R,2S)-5′-methoxy-2′-oxo-1′,2′-dihydrospiro[cyclopropane-1,3′-indol]-2-yl]-1H-indazol-3-yl}amino)-N-(3-methyloxetan-3-yl)pyridine-3-sulfonamide] | 1.35
0.000564 | 1790.7801 | 473.6 | COc1ccc2c(c1)[C@]1(C[C@H]1c1ccc3c(Nc4ncc(S(=O)(=O)N(C)C5(C)COC5)cc4OC)n[nH]c3c1)C(=O)N2 [Example 270, 5-methoxy-6-({6-[(1R,2S)-5′-methoxy-2′-oxo-1′,2′-dihydrospiro[cyclopropane-1,3′-indol]-2-yl]-1H-indazol-3-yl}amino)-N-methyl-N-(3-methyloxetan-3-yl)pyridine-3-sulfonamide] | 0.269
0.000833 | 448.8595 | 3273.7094 | CCOc1cc(S(C)(=O)=O)ccc1Nc1n[nH]c2cc([C@@H]3C[C@@]34C(=O)Nc3ccc(OC)cc34)ccc12 [Example 272, (1R,2S)-2-{3-[2-Ethoxy-4-(methanesulfonyl)anilino]-1H-indazol-6-yl}-5′-methoxyspiro[cyclopropane-1,3′-indol]-2′(1′H)-one] | 0.0778
0.00145 | 2831.3833 | 3483.1383 | CCOc1cc(S(=O)(=O)N2CCN(C)CC2)cnc1Nc1n[nH]c2cc([C@@H]3C[C@@]34C(=O)Nc3ccc(OC)cc34)ccc12 [Example 273, (1R,2S)-2-(3-{[3-ethoxy-5-(4-methylpiperazine-1-salfonyl)pyridin-2-yl]amino)-1H-indazol-6-yl)-5′-methoxyspiro[cyclopropane-1,3′-indol]-2′(1′H)-one] | 1.7
0.000763 | 961.3368 | 2560.9436 | CCOc1cc(S(=O)(=O)CC)cnc1Nc1n[nH]c2cc([C@@H]3C[C@@]34C(=O)Nc3ccc(OC)cc34)ccc12 [Example 274, (1R,2S)-2-(3-{[5-(Ethanesulfonyl)-3-ethoxypyridin-2-yl]amino}-1H-indazol-6-yl)-5′-methoxyspiro[cyclopropane-1,3′-indol]-2′(1′H)-one] | 0.0723
0.00261 | 2173.2976 | 377.9648 | CCOc1cc(S(C)(=O)=O)cnc1Nc1n[nH]c2cc([C@@H]3C[C@@]34C(=O)Nc3ccc(Cl)cc34)ccc12 [Example 276, (1R,2S)-5′-chloro-2-(3-{[3-ethoxy-5-(methanesulfonyl)pyridin-2-yl]amino}-1H-indazol-6-yl)spiro[cyclopropane-1,3′-indol]-2′(1′H)-one] | 4.08
